System: Male Sprague-Dawley rats
Test: Carrageenan-induced mechanical hyperalgesia (CIMH), paw withdrawal threshold
Assay type: in vivo
Conditions: rat, per orally
Method: Carrageenan-induced mechanical hyperalgesia (CIMH)[1] is utilized to evaluate analgesic activity of drugs against acute inflammatory pain.
1% carrageenan is prepared at least two days before use. An appropriate amount of λ-carrageenain is weighed into a 10 ml screw vial. Sterile saline is added to make 1% (w/v) suspension solution and the suspension is stirred for 8 hours with gentle heating to be dissolved obtain homogeneous suspension.
Male Sprague-Dawley rats, 4 W (Japan SLC or Charles River Japan), 100-130 g are used. Environment conditions are controlled at a 12-h light/dark cycle with (lights on 076:00 a.m.). and an ambient temperature of 23+/−2 deg. C. Prior to start the experiment, animals are housed under this condition for 4-5 days. Each group is used a group of 6-8 rats. The rats are fasted for 16-18 hours before use and the rats are trained for measurement of mechanical threshold using the apparatus for two days before use.
The paw withdrawal response of the rat to increased pressure on a right hindpaw is recorded as mechanical threshold. The threshold is defined as “pre value”. Hyperalgesia is induced by intraplantar injection of 0.1 ml of 1% carrageenain in the right hindpaw. The paw withdrawal threshold is measured at 3.5 and 4.5 hours after the carrageenan injection. Rats are randomly grouped by the paw withdrawal threshold at 4.5 hours and pre value after the carrageenan injection. Vehicle or test compounds (10 ml of 0.1% methylcellulose/1 kg body weight) are given per orally at 5.5 hours after the carrageenain injection. The paw withdrawal Mechanical threshold is measured by an analgesy meter at 4, 5, 6.5 and 7.5 hours after the carrageenin carrageenan injection. The threshold at 6.5 or 7.5 hours is determined as ‘post value’.
% change in threshold=(preost value−postre value)/(pre value)×100% inhibition=(B−A)/(C−A)×100
A=average of % change in threshold post values in disease control (vehicle treated) group B=average of % change in threshold post values in compound treated group C=average of pre values of all rats used
% inhibition=(A−B)/|A|×100
The data is analyzed with unpaired t-test or one-way ANOVA (plus multiple comparison test) for % change in thresholdpost values. Results are considered significant when p<0.05 versus disease control group.

Structure (SMILES) | Inhibition (%) 2 hours post dosing (dose 0.3 mg/kg) | Inhibition (%) 2 hours post dosing (dose 1 mg/kg) | Inhibition (%) 2 hours post dosing (dose 3 mg/kg) | Inhibition (%) 2 hours post dosing (dose 10 mg/kg) | Inhibition (%) 2 hours post dosing (dose 30 mg/kg) | Inhibition (%) 2 hours post dosing (dose 100 mg/kg)
C[C@H](NC(=O)c1cc(Cl)cnc1Oc1cccc(F)c1)c1ccc(C(=O)O)cc1 [4-[(1S)-1-({[5-chloro-2-(3-fluorophenoxy)pyridin-3-yl]carbonyl}amino)ethyl]benzoic acid] | 19.2% | 41.9% | 50% |  |  | 
CC(C)C[C@H](CN)CC(=O)O [Pregabalin, (S)-(+)-4-amino-3-(2-methylpropyl)butanoic acid] |  |  | 1.6% | 8.4% | 16.4% | 31%

Source: patent US20090036495A1, “Combinations Comprising Alpha-2-Delta Ligands and Ep4 Receptor Antagonists” (Pfizer, Inc., priority 2004, published 2009)
